Data: ChEMBL document CHEMBL1201862, “PubChem BioAssay data set” (2004)
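Five compound concentrations were applied to cells in 96-well plates for 48 hours; endpoints were derived by simple linear interpolation of the resulting dose-response curve. GI50 = concentration required for 50% inhibition of growth.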 Active and inactive are the calls of the source. No stated cut-off is given here; in the data, active = GI50 up to about 1.1 µM and inactive = higher.

Tests used:
Assay in all cases: NCI tumour cell line growth inhibition, 48 h
A498 = test system: A498
ACHN = test system: ACHN
SR = test system: SR
HOP-92 = test system: HOP-92
A549 = test system: A549
Hs-578T = test system: Hs-578T
OVCAR-3 = test system: OVCAR-3
SW-620 = test system: SW-620
Malme-3M = test system: Malme-3M
M14 = test system: M14
HOP-62 = test system: HOP-62
MDA-MB-231 = test system: MDA-MB-231
KM12 = test system: KM12
SK-OV-3 = test system: SK-OV-3
MCF7 = test system: MCF7
OVCAR-8 = test system: OVCAR-8
SNB-19 = test system: SNB-19
NCI-H23 = test system: NCI-H23
U-251 = test system: U-251
SN12C = test system: SN12C
TK-10 = test system: TK-10
K562 = test system: K562
OVCAR-4 = test system: OVCAR-4
NCI-H522 = test system: NCI-H522
COLO 205 = test system: COLO 205
EKVX = test system: EKVX
SF-268 = test system: SF-268
MDA-MB-435 = test system: MDA-MB-435
SF-295 = test system: SF-295
HCT-15 = test system: HCT-15
SK-MEL-2 = test system: SK-MEL-2
HCT-116 = test system: HCT-116
OVCAR-5 = test system: OVCAR-5
IGROV-1 = test system: IGROV-1
MDA-N = test system: MDA-N
RXF 393 = test system: RXF 393
SF-539 = test system: SF-539
UACC-62 = test system: UACC-62
RPMI-8226 = test system: RPMI-8226
NCI-H460 = test system: NCI-H460
HCC 2998 = test system: HCC 2998
DU-145 = test system: DU-145
CAKI-1 = test system: CAKI-1
NCI/ADR-RES = test system: NCI/ADR-RES
SK-MEL-28 = test system: SK-MEL-28
SK-MEL-5 = test system: SK-MEL-5
HL-60 = test system: HL-60
CCRF-CEM = test system: CCRF-CEM
T47D = test system: T47D
UACC-257 = test system: UACC-257
PC-3 = test system: PC-3
LOX IMVI = test system: LOX IMVI
NCI-H226 = test system: NCI-H226
MOLT-4 = test system: MOLT-4
BT-549 = test system: BT-549
786-0 = test system: 786-0
HT-29 = test system: HT-29
UO-31 = test system: UO-31
SNB-75 = test system: SNB-75

## O=C1c2ccc3cc(CCl)cc(O)c3c2C(=O)c2cccc(O)c21
A498
  GI50: > 10 µM (inactive)
ACHN
  GI50: 2.91 µM (inactive)
SR
  GI50: 0.447 µM (active)
HOP-92
  GI50: 4.58 µM (inactive)
A549
  GI50: 4.61 µM (inactive)
Hs-578T
  GI50: > 10 µM (inactive)
OVCAR-3
  GI50: 0.152 µM (active)
SW-620
  GI50: 0.145 µM (active)
Malme-3M
  GI50: 0.0151 µM (active)
M14
  GI50: 0.239 µM (active)
HOP-62
  GI50: 3.38 µM (inactive)
MDA-MB-231
  GI50: 1.08 µM (active)
KM12
  GI50: 4.79 µM (inactive)
SK-OV-3
  GI50: > 10 µM (inactive)
MCF7
  GI50: 0.729 µM (active)
OVCAR-8
  GI50: 2.01 µM (inactive)
SNB-19
  GI50: 4.58 µM (inactive)
NCI-H23
  GI50: 3.12 µM (inactive)
U-251
  GI50: 2.72 µM (inactive)
SN12C
  GI50: 1.5 µM (inactive)
TK-10
  GI50: > 10 µM (inactive)
K562
  GI50: 3.44 µM (inactive)
OVCAR-4
  GI50: 2.67 µM (inactive)
NCI-H522
  GI50: 3.28 µM (inactive)
COLO 205
  GI50: 1.95 µM (inactive)
EKVX
  GI50: > 10 µM (inactive)
SF-268
  GI50: 2.16 µM (inactive)
MDA-MB-435
  GI50: 0.179 µM (active)
SF-295
  GI50: > 10 µM (inactive)
HCT-15
  GI50: 1.1 µM
SK-MEL-2
  GI50: 1.64 µM (inactive)
HCT-116
  GI50: 1.1 µM (active)
OVCAR-5
  GI50: > 10 µM (inactive)
IGROV-1
  GI50: > 10 µM (inactive)
MDA-N
  GI50: 0.169 µM (active)
RXF 393
  GI50: 2.55 µM (inactive)
SF-539
  GI50: 2.39 µM (inactive)
UACC-62
  GI50: 1.22 µM (inactive)
RPMI-8226
  GI50: 2.21 µM (inactive)
NCI-H460
  GI50: 3.3 µM (inactive)
HCC 2998
  GI50: 3.17 µM (inactive)
DU-145
  GI50: 4.95 µM (inactive)
CAKI-1
  GI50: > 10 µM (inactive)
NCI/ADR-RES
  GI50: 2.02 µM (inactive)
SK-MEL-28
  GI50: 1.77 µM (inactive)
SK-MEL-5
  GI50: 0.604 µM (active)
HL-60
  GI50: 0.284 µM (active)
CCRF-CEM
  GI50: 1.07 µM (active)
T47D
  GI50: 7.48 µM (inactive)
UACC-257
  GI50: 1.17 µM (inactive)
PC-3
  GI50: 1.81 µM (inactive)
LOX IMVI
  GI50: 2.96 µM (inactive)
NCI-H226
  GI50: 2.7 µM (inactive)
MOLT-4
  GI50: 1.37 µM (inactive)
BT-549
  GI50: > 10 µM (inactive)
786-0
  GI50: 2.07 µM (inactive)

## CC1OC(Oc2c(-c3cc(O)c(O)c(O)c3)oc3cc(O)cc(O)c3c2=O)C(O)C(O)C1O (stereo unspecified)
A498
  GI50: > 100 µM (inactive)
ACHN
  GI50: > 100 µM (inactive)
SR
  GI50: 96.8 µM (inactive)
HOP-92
  GI50: > 100 µM (inactive)
A549
  GI50: > 100 µM (inactive)
Hs-578T
  GI50: > 100 µM (inactive)
OVCAR-3
  GI50: > 100 µM (inactive)
SW-620
  GI50: > 100 µM (inactive)
Malme-3M
  GI50: > 100 µM (inactive)
M14
  GI50: > 100 µM (inactive)
HOP-62
  GI50: > 100 µM (inactive)
MDA-MB-231
  GI50: 87.9 µM (inactive)
KM12
  GI50: > 100 µM (inactive)
SK-OV-3
  GI50: > 100 µM (inactive)
MCF7
  GI50: > 100 µM (inactive)
OVCAR-8
  GI50: > 100 µM (inactive)
SNB-19
  GI50: > 100 µM (inactive)
NCI-H23
  GI50: > 100 µM (inactive)
U-251
  GI50: > 100 µM (inactive)
SN12C
  GI50: > 100 µM (inactive)
TK-10
  GI50: > 100 µM (inactive)
OVCAR-4
  GI50: > 100 µM (inactive)
NCI-H522
  GI50: > 100 µM (inactive)
COLO 205
  GI50: > 100 µM (inactive)
EKVX
  GI50: > 100 µM (inactive)
HT-29
  GI50: > 100 µM (inactive)
SF-268
  GI50: > 100 µM (inactive)
MDA-MB-435
  GI50: 57.4 µM (inactive)
SF-295
  GI50: > 100 µM (inactive)
HCT-15
  GI50: > 100 µM
SK-MEL-2
  GI50: > 100 µM (inactive)
HCT-116
  GI50: > 100 µM (inactive)
OVCAR-5
  GI50: > 100 µM (inactive)
IGROV-1
  GI50: > 100 µM (inactive)
UO-31
  GI50: > 100 µM (inactive)
MDA-N
  GI50: 31 µM (inactive)
RXF 393
  GI50: > 100 µM (inactive)
SF-539
  GI50: > 100 µM (inactive)
UACC-62
  GI50: > 100 µM (inactive)
RPMI-8226
  GI50: > 100 µM (inactive)
HCC 2998
  GI50: > 100 µM (inactive)
DU-145
  GI50: > 100 µM (inactive)
CAKI-1
  GI50: > 100 µM (inactive)
NCI/ADR-RES
  GI50: > 100 µM (inactive)
SK-MEL-28
  GI50: > 100 µM (inactive)
SK-MEL-5
  GI50: > 100 µM (inactive)
HL-60
  GI50: 56.6 µM (inactive)
CCRF-CEM
  GI50: > 10 µM (inactive)
SNB-75
  GI50: > 100 µM (inactive)
T47D
  GI50: > 100 µM (inactive)
UACC-257
  GI50: > 100 µM (inactive)
PC-3
  GI50: > 100 µM (inactive)
LOX IMVI
  GI50: > 100 µM (inactive)
NCI-H226
  GI50: > 100 µM (inactive)
MOLT-4
  GI50: > 100 µM (inactive)
BT-549
  GI50: > 100 µM (inactive)
786-0
  GI50: > 100 µM (inactive)

## O=C1c2ccccc2-c2nnc(-c3ccc(Cl)cc3)cc21
A498
  GI50: > 10 µM (inactive)
ACHN
  GI50: > 10 µM (inactive)
SR
  GI50: > 10 µM (inactive)
HOP-92
  GI50: > 10 µM (inactive)
A549
  GI50: > 10 µM (inactive)
Hs-578T
  GI50: > 10 µM (inactive)
OVCAR-3
  GI50: > 10 µM (inactive)
SW-620
  GI50: > 10 µM (inactive)
Malme-3M
  GI50: > 10 µM (inactive)
M14
  GI50: > 10 µM (inactive)
HOP-62
  GI50: > 10 µM (inactive)
MDA-MB-231
  GI50: > 10 µM (inactive)
KM12
  GI50: > 10 µM (inactive)
SK-OV-3
  GI50: > 10 µM (inactive)
MCF7
  GI50: > 10 µM (inactive)
OVCAR-8
  GI50: > 10 µM (inactive)
SNB-19
  GI50: > 10 µM (inactive)
NCI-H23
  GI50: > 10 µM (inactive)
U-251
  GI50: > 10 µM (inactive)
SN12C
  GI50: > 10 µM (inactive)
K562
  GI50: > 10 µM (inactive)
OVCAR-4
  GI50: > 10 µM (inactive)
NCI-H522
  GI50: > 10 µM (inactive)
COLO 205
  GI50: > 10 µM (inactive)
EKVX
  GI50: > 10 µM (inactive)
HT-29
  GI50: > 10 µM (inactive)
SF-268
  GI50: > 10 µM (inactive)
MDA-MB-435
  GI50: > 10 µM (inactive)
SF-295
  GI50: > 10 µM (inactive)
HCT-15
  GI50: > 10 µM
SK-MEL-2
  GI50: > 10 µM (inactive)
HCT-116
  GI50: > 10 µM (inactive)
OVCAR-5
  GI50: > 10 µM (inactive)
IGROV-1
  GI50: > 10 µM (inactive)
UO-31
  GI50: > 10 µM (inactive)
MDA-N
  GI50: > 10 µM (inactive)
RXF 393
  GI50: > 10 µM (inactive)
SF-539
  GI50: > 10 µM (inactive)
UACC-62
  GI50: > 10 µM (inactive)
RPMI-8226
  GI50: > 10 µM (inactive)
NCI-H460
  GI50: > 10 µM (inactive)
HCC 2998
  GI50: > 10 µM (inactive)
DU-145
  GI50: > 10 µM (inactive)
CAKI-1
  GI50: > 10 µM (inactive)
NCI/ADR-RES
  GI50: > 10 µM (inactive)
SK-MEL-28
  GI50: > 10 µM (inactive)
SK-MEL-5
  GI50: > 10 µM (inactive)
HL-60
  GI50: > 10 µM (inactive)
CCRF-CEM
  GI50: > 10 µM (inactive)
SNB-75
  GI50: > 10 µM (inactive)
T47D
  GI50: > 10 µM (inactive)
UACC-257
  GI50: > 10 µM (inactive)
PC-3
  GI50: > 10 µM (inactive)
LOX IMVI
  GI50: > 10 µM (inactive)
NCI-H226
  GI50: > 10 µM (inactive)
MOLT-4
  GI50: > 10 µM (inactive)
BT-549
  GI50: > 10 µM (inactive)
786-0
  GI50: > 10 µM (inactive)
